Results as given in patent US10278974B2 (Pfizer Inc., priority 2010, dated 2019).

Assays:
Type in all cases: physicochemical
[1] = Physical stability on storage, followed by PXRD; details: two weeks of storage at 70° C. with 75% relative humidity
Procedure: A PXRD pattern for maleate polymorph Form B was measured at: 1) an initial time point and 2): two weeks after storage at 70° C. with 75% relative humidity (RH).
A PXRD pattern for S-camsylate polymorph Form A was measured at: 1) an initial time point and 2): two weeks after storage at 70° C. with 75% relative humidity (RH).

[2] = Hygroscopicity by dynamic vapor sorption (DVS); details: 30° C., 0 to 90% RH in 15% RH intervals
Procedure: Solid (20-25 mg) was exposed to a controlled relative humidity (% RH) and temperature environment (30° C.), and the weight change was recorded over time. The humidity was stepped from 0 to 90% RH in 15% RH intervals.

[3] = Susceptibility of salt forms to hydration; details: compared to other salt forms of Compound 1; solid dosage form suitability

Row | change of PXRD pattern after storage (physical stability) [1] | hygroscopicity indicated by dynamic vapor sorption isotherm [2] | susceptibility to hydration [3] | SMILES
1 | did not change significantly | non-hygroscopic | not susceptible to hydration | CC1(C)[C@@H]2CC[C@@]1(CS(=O)(=O)O)C(=O)C2.CNCc1ccc(-c2[nH]c3cc(F)cc4c3c2CCNC4=O)cc1 [S-camsylate polymorph Form A]
2 | did not change significantly | non-hygroscopic | not susceptible to hydration | CNCc1ccc(-c2[nH]c3cc(F)cc4c3c2CCNC4=O)cc1.O=C(O)C=CC(=O)O [maleate polymorph Form B]
